In US6914045B2, “Glycopeptide antibiotics” (Wyeth Holdings Corporation, priority 2001, dated 2005):
≈ marks a conversion by molar mass, not a printed value.

Columns and labels:
Assay in all cases: in vitro antibacterial evaluation, MIC by broth dilution
Format in all cases: cell-based
Enterococcus sp. = conditions: broth dilution, 18 hours at 35° C.; for MIC Enterococcus faecalis (ATCC 29212): strain ATCC 29212; for MIC Enterococcus faecalis (GC 2242): strain GC 2242; for MIC Enterococcus faecium (GC 2243): strain GC 2243; for MIC Enterococcus faecalis (GC 2691): strain GC 2691; for MIC Enterococcus faecalis (GC 3059): strain GC 3059; for MIC Enterococcus faecalis (GC 4552): strain GC 4552; for MIC Enterococcus faecalis (GC 4553): strain GC 4553; for MIC Enterococcus faecalis (GC 4554): strain GC 4554; for MIC Enterococcus faecium (GC 4556): strain GC 4556; for MIC Enterococcus faecium (GC 4557): strain GC 4557; for MIC Enterococcus avium (GC 4558): strain GC 4558; for MIC Enterococcus faecalis (GC 6189): strain GC 6189
Method in brief: (§1)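 Broth dilution per NCCLS standard M7-A2 in Muller-Hinton II […], with an inoculum of 5×10^5 CFU/mL and antibiotic spanning 64-0.06 μg/mL. The MIC is the lowest concentration that inhibits growth of the organism.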

Streptococcus sp. = conditions: broth dilution, 18 hours at 35° C.; for MIC Streptococcus pneumoniae (ATCC 6301): strain ATCC 6301; for MIC Streptococcus pneumoniae (GC 1894): strain GC 1894; for MIC Streptococcus pyogenes (GC 4563): strain GC 4563; for MIC Streptococcus agalactiae (GC 4564): strain GC 4564; for MIC Streptococcus pneumoniae (GC 4565): strain GC 4565
Method in brief: as §1

Staphylococcus sp. = conditions: broth dilution, 18 hours at 35° C.; for MIC Staphylococcus aureus (GC 1131): strain GC 1131
Method in brief: as §1

Escherichia coli = test system: Escherichia coli
Method in brief: as §1

MIC Enterococcus faecalis (ATCC 29212) (Enterococcus sp.; inoculum 5×10^5 CFU/mL): 32 µg/mL (≈ 21.7 µM)
MIC Enterococcus faecalis (GC 2242) (Enterococcus sp.; inoculum 5×10^5 CFU/mL): 32 µg/mL (≈ 21.7 µM)
MIC Enterococcus faecium (GC 2243) (Enterococcus sp.; inoculum 5×10^5 CFU/mL): 32 µg/mL (≈ 21.7 µM)
MIC Enterococcus faecalis (GC 2691) (Enterococcus sp.; inoculum 5×10^5 CFU/mL): 32 µg/mL (≈ 21.7 µM)
MIC Enterococcus faecalis (GC 3059) (Enterococcus sp.; inoculum 5×10^5 CFU/mL): 32 µg/mL (≈ 21.7 µM)
MIC Enterococcus faecalis (GC 4552) (Enterococcus sp.; inoculum 5×10^5 CFU/mL): 32 µg/mL (≈ 21.7 µM)
MIC Enterococcus faecalis (GC 4553) (Enterococcus sp.; inoculum 5×10^5 CFU/mL): 32 µg/mL (≈ 21.7 µM)
MIC Enterococcus faecalis (GC 4554) (Enterococcus sp.; inoculum 5×10^5 CFU/mL): 32 µg/mL (≈ 21.7 µM)
MIC Enterococcus faecium (GC 4556) (Enterococcus sp.; inoculum 5×10^5 CFU/mL): 32 µg/mL (≈ 21.7 µM)
MIC Enterococcus faecium (GC 4557) (Enterococcus sp.; inoculum 5×10^5 CFU/mL): 8 µg/mL (≈ 5.43 µM)
MIC Enterococcus avium (GC 4558) (Enterococcus sp.; inoculum 5×10^5 CFU/mL): 32 µg/mL (≈ 21.7 µM)
MIC Enterococcus faecalis (GC 6189) (Enterococcus sp.; inoculum 5×10^5 CFU/mL): 32 µg/mL (≈ 21.7 µM)
MIC Enterococcus faecalis (ATCC 29212) (Enterococcus sp.): 32 µg/mL (≈ 21.7 µM)
MIC Enterococcus faecalis (GC 2242) (Enterococcus sp.): 32 µg/mL (≈ 21.7 µM)
MIC Enterococcus faecium (GC 2243) (Enterococcus sp.): 32 µg/mL (≈ 21.7 µM)
MIC Enterococcus faecalis (GC 2691) (Enterococcus sp.): 32 µg/mL (≈ 21.7 µM)
MIC Enterococcus faecalis (GC 3059) (Enterococcus sp.): 32 µg/mL (≈ 21.7 µM)
MIC Enterococcus faecalis (GC 4552) (Enterococcus sp.): 32 µg/mL (≈ 21.7 µM)
MIC Enterococcus faecalis (GC 4553) (Enterococcus sp.): 32 µg/mL (≈ 21.7 µM)
MIC Enterococcus faecalis (GC 4554) (Enterococcus sp.): 32 µg/mL (≈ 21.7 µM)
MIC Enterococcus faecium (GC 4556) (Enterococcus sp.): 32 µg/mL (≈ 21.7 µM)
MIC Enterococcus faecium (GC 4557) (Enterococcus sp.): 8 µg/mL (≈ 5.43 µM)
MIC Enterococcus avium (GC 4558) (Enterococcus sp.): 32 µg/mL (≈ 21.7 µM)
MIC Enterococcus faecalis (GC 6189) (Enterococcus sp.): 32 µg/mL (≈ 21.7 µM)
MIC Streptococcus pneumoniae (ATCC 6301) (Streptococcus sp.; inoculum 5×10^5 CFU/mL): 1 µg/mL (≈ 0.679 µM)
MIC Streptococcus pneumoniae (GC 1894) (Streptococcus sp.; inoculum 5×10^5 CFU/mL): 0.25 µg/mL (≈ 0.17 µM)
MIC Streptococcus pyogenes (GC 4563) (Streptococcus sp.; inoculum 5×10^5 CFU/mL): 1 µg/mL (≈ 0.679 µM)
MIC Streptococcus agalactiae (GC 4564) (Streptococcus sp.; inoculum 5×10^5 CFU/mL): 2 µg/mL (≈ 1.36 µM)
MIC Streptococcus pneumoniae (GC 4565) (Streptococcus sp.; inoculum 5×10^5 CFU/mL): 1 µg/mL (≈ 0.679 µM)
MIC Streptococcus pneumoniae (ATCC 6301) (Streptococcus sp.): 1 µg/mL (≈ 0.679 µM)
MIC Streptococcus pneumoniae (GC 1894) (Streptococcus sp.): 0.25 µg/mL (≈ 0.17 µM)
MIC Streptococcus pyogenes (GC 4563) (Streptococcus sp.): 1 µg/mL (≈ 0.679 µM)
MIC Streptococcus agalactiae (GC 4564) (Streptococcus sp.): 2 µg/mL (≈ 1.36 µM)
MIC Streptococcus pneumoniae (GC 4565) (Streptococcus sp.): 1 µg/mL (≈ 0.679 µM)
MIC Staphylococcus aureus (GC 1131) (Staphylococcus sp.; inoculum 5×10^5 CFU/mL): 16 µg/mL (≈ 10.9 µM)
MIC Staphylococcus aureus (ATCC 29213) (Staphylococcus sp.; strain ATCC 29213): 16 µg/mL (≈ 10.9 µM)
MIC Staphylococcus aureus (GC 1131) (Staphylococcus sp.): 16 µg/mL (≈ 10.9 µM)
MIC Staphylococcus aureus (GC 3051) (Staphylococcus sp.; strain GC 3051): 16 µg/mL (≈ 10.9 µM)
MIC Staphylococcus aureus (GC 3053) (Staphylococcus sp.; strain GC 3053): 16 µg/mL (≈ 10.9 µM)
MIC Staphylococcus aureus (GC 4541) (Staphylococcus sp.; strain GC 4541): 8 µg/mL (≈ 5.43 µM)
MIC Staphylococcus aureus (GC 4542) (Staphylococcus sp.; strain GC 4542): 16 µg/mL (≈ 10.9 µM)
MIC Staphylococcus aureus-SMITH (GC 4543) (Staphylococcus sp.; strain GC 4543): 16 µg/mL (≈ 10.9 µM)
MIC Staphylococcus aureus (GC 4544) (Staphylococcus sp.; strain GC 4544): 16 µg/mL (≈ 10.9 µM)
MIC Staphylococcus aureus (GC 4545) (Staphylococcus sp.; strain GC 4545): 16 µg/mL (≈ 10.9 µM)
MIC Coagulase Negative Staphylococcus (GC 4547) (Staphylococcus sp.; strain GC 4547): 8 µg/mL (≈ 5.43 µM)
MIC Coagulase Negative Staphylococcus (GC 4548) (Staphylococcus sp.; strain GC 4548): 8 µg/mL (≈ 5.43 µM)
MIC Coagulase Negative Staphylococcus (GC 4549) (Staphylococcus sp.; strain GC 4549): 8 µg/mL (≈ 5.43 µM)
MIC Coagulase Negative Staphylococcus (GC 4551) (Staphylococcus sp.; strain GC 4551): 16 µg/mL (≈ 10.9 µM)
MIC Coagulase Negative Staphylococcus (GC 6257) (Staphylococcus sp.; strain GC 6257): 8 µg/mL (≈ 5.43 µM)
MIC Escherichia coli (ATCC 25922) (Escherichia coli; strain ATCC 25922, 18 hours at 35° C.): >128 µg/mL
MIC Escherichia coli (GC 4559) (Escherichia coli; strain GC 4559, 18 hours at 35° C.): >128 µg/mL
MIC Escherichia coli (GC 4560) (Escherichia coli; strain GC 4560, 18 hours at 35° C.): 8 µg/mL (≈ 5.43 µM)
Structure (SMILES): CCOc1cc(C2OCC3OC(OC4C(CO)OC(Oc5ccc(CC6NC(=O)C(C(C)c7ccccc7)NC(=O)CNC(=O)C(CO)NC(=O)C(C(O)C7CNC(=N)N7C7OC(CO)C(O)C(O)C7O)NC(=O)C(C(O)C7CNC(=N)N7)NC6=O)cc5)C(O)C4O)C(O)C(O)C3O2)ccc1[N+](=O)[O-] (centres unmarked) [Example 167]
MIC Staphylococcus haemolyticus (GC 4546) (Staphylococcus sp.; strain GC 4546): 16 µg/mL (≈ 10.9 µM)
